Results reported in PubChem BioAssay AID2823 (Broad Institute, 2010).
Calls of active or inactive are those of the source. How the calls were made is not given here.

biological target: RanGTP-importin-beta complex (human Ran / KPNB1); assay: disruptors of RanGTP/KPNB1 binding – biochemical, FRET, CFP/YFP, cell-free homogeneous, confirmation (AID 2823); settings: CFP-Ran/YFP-importin-beta FRET ratio

Row | SMILES | IC50
1 | CCOc1cc(NS(=O)(=O)c2ccc(NC(C)=O)cc2)c(OCC)cc1NC(=O)C(C)C | > 50 µM (inactive)
2 | Cn1cnc(S(=O)(=O)N2CCN(c3ccc(Cl)cc3)CC2)c1 | > 50 µM (inactive)
3 | COc1ccc(S(=O)Cc2ccc(C(=O)NC3CC3)o2)cc1 (centres undefined) | > 50 µM (inactive)
4 | Cc1cc2oc3cc(NCCC4CCCN4C)ccc3c(=O)c2cc1C (centres undefined) | 8.12 µM
5 | Cc1cc(C2C(C#N)=C(N)SC(N)=C2C#N)c(C)s1 | > 50 µM (inactive)
6 | CC(C)S(=O)(=O)c1nsc2nc(=O)c(/C=C3\C=Nc4ccccc43)c(N)n12 | 7.97 µM
7 | Cc1ccc(-c2nc3cc(N)ccc3o2)cc1 | > 50 µM (inactive)
8 | Cc1ccccc1-n1c(=O)cc(N2CCC3(CC2)OCCO3)[nH]c1=O | > 50 µM (inactive)
9 | COc1ccc(-c2c(N)nnc3c2[nH]c2ccccc23)cc1OC | > 50 µM (inactive)
10 | COc1cc(C(=O)Oc2c(CN3CCOCC3)cc(Cl)c3cccnc23)cc(OC)c1OC | > 50 µM (inactive)
11 | O=C(CCN1C(=O)COc2ccccc21)N1CCCCC1 | > 50 µM (inactive)
12 | NC(=O)c1sc2nccc(Nc3ccccc3)c2c1N | > 50 µM (inactive)
13 | CCOc1ccc(-n2c(N)c(C(=O)NCc3ccco3)c3nc4ccccc4nc32)cc1 | 25 µM
14 | Cc1sc2nc(COC(=O)Cc3ccccc3)[nH]c(=O)c2c1C | > 50 µM (inactive)
15 | COc1ccc(C(=O)Oc2c(CN3CCOCC3)cc(Cl)c3cccnc23)cc1 | > 50 µM (inactive)
16 | CCOC(=O)/C(C#N)=C\c1ccc(N2CCN(C)CC2)cc1 | 15 µM
17 | N#C/C(=C(/O)CSc1ccccn1)c1nc2ccccc2s1 | > 50 µM (inactive)
18 | Oc1c(C=Nc2ccccc2)sc2ccccc12 | 27.6 µM
19 | CCOC(=O)/C=C1\SCC(=O)N1CC(=O)c1ccc[nH]1 | > 50 µM (inactive)
20 | O=C(Nc1cccc(-c2nc3ccccc3s2)c1)c1cccs1 | > 50 µM (inactive)
21 | O=[N+]([O-])c1ccc(CNC2CCCc3ccccc32)cc1 (centres undefined) | > 50 µM (inactive)
22 | CNC(=S)Nc1ccc(C(N)=O)cc1 | > 50 µM (inactive)
23 | COc1ccc(CNC(=O)C2CC(=O)N(C3CCCCC3)C2)cc1 (centres undefined) | > 50 µM (inactive)
24 | Nc1c(C(=O)NC2CCCC2)c2nc3ccccc3nc2n1/N=C/c1ccco1 | 14.3 µM
25 | CCOC(=O)c1ccccc1NC(=O)COC(=O)C(CCSC)NC(=O)COc1ccccc1 (centres undefined) | > 50 µM (inactive)

Row | SMILES | IC50
26 | CC1CCN(c2nc3ccccc3nc2C(C#N)C(=O)OC2CCCCC2)CC1 (centres undefined) | > 50 µM (inactive)
27 | Cc1cc(NCCN(C)C)n2nc(-c3cccs3)cc2n1 | 28.8 µM
28 | CCc1ccc(C(=O)CSc2ncn[nH]2)cc1 | > 50 µM (inactive)
29 | OCCN1CCN(c2nc(-c3ccccc3)c3cc(Cl)ccc3n2)CC1 | 22.2 µM
30 | Oc1ccc(-c2[nH]ncc2-c2cccc3cccnc23)c(O)c1 | > 50 µM (inactive)
31 | O=C1CCCN2N=C(SCC(=O)N3N=C(c4ccc(Br)cc4)CC3c3ccc(F)cc3)SC2=N1 (centres undefined) | > 50 µM (inactive)
32 | CC1(C(=O)O)C=CCN1C(=O)c1ccccc1 (centres undefined) | > 50 µM (inactive)
33 | C=CCNC(=O)c1cccc(OC2CCN(CC(C)(C)C)CC2)c1 | > 50 µM (inactive)
34 | Cc1ccc2cc(CN(CC3CCCO3)C(=S)Nc3ccccc3)c(=O)[nH]c2c1C (centres undefined) | > 50 µM (inactive)
35 | COc1cc2c(cc1OC)CN(Cc1ccccc1)CC2 | > 50 µM (inactive)
36 | OCC1(Cc2cccc(Cl)c2)CCCN(Cc2ccc3cc(F)ccc3n2)C1 (centres undefined) | > 50 µM (inactive)
37 | CCOC(=O)/C(C#N)=C/c1c(N2CCN(c3ccc(OC)cc3)CC2)nc2c(C)cccn2c1=O | > 50 µM (inactive)
38 | COCCCn1c(N)c(C(=O)Nc2ccccc2)c2nc3ccccc3nc21 | 40.8 µM
39 | O=c1cc(N2CCC(Cc3ccccc3)CC2)[nH]c(=O)n1C1CCCCC1 | > 50 µM (inactive)
40 | COc1ccc(CNCc2c(O)c(Cl)cc3c(C)c(C)c(=O)oc23)c(OC)c1 | 6.06 µM
41 | CCCCc1cc(=O)oc2c(C)c(OCC(=O)NCc3ccccn3)ccc12 | > 50 µM (inactive)
42 | C/C(=N\NC(=O)c1c(C)nc2ccccn12)c1ccc(O)cc1O | > 50 µM (inactive)
43 | N#C/C(=C\c1ccc(N2CCOCC2)o1)C(=O)N1CCOCC1 | 4.66 µM
44 | CCOC(=O)C1(CC2CCCCO2)CCN(C(=O)Nc2ccc3c(c2)OCO3)CC1 (centres undefined) | > 50 µM (inactive)
45 | O=C(O)c1cccc(Nc2c3ccccc3nc3ccccc23)c1 | > 50 µM (inactive)
46 | N=C(N)SCc1nc2ccccc2c(=O)n1-c1ccccc1Cl | > 50 µM (inactive)
47 | C[C@H](O)c1[nH]c2cc(F)ccc2c1[C@H](C)O | > 50 µM (inactive)
48 | N#Cc1cc(NCC2CCCO2)c([N+](=O)[O-])cc1C#N (centres undefined) | > 50 µM (inactive)
49 | Nc1c(C(=O)NCc2ccccc2)c2nc3ccccc3nc2n1-c1ccc2c(c1)OCO2 | 15.2 µM
50 | O=C(NC1=NCCS1)c1cc(-c2cccnc2)nc2ccccc12 | > 50 µM (inactive)

Row | SMILES | IC50
51 | CCCCc1c(C)c(C#N)c2nc3ccccc3n2c1Nc1c(C)n(C)n(-c2ccccc2)c1=O | 45 µM
52 | COc1ccc(NC(=O)/C(C#N)=C\c2ccc(N3CCOCC3)o2)cc1 | > 50 µM (inactive)
53 | COc1ccc(CCNC(=O)c2cc3c(=O)n4ccccc4nc3n(CCCN3CCOCC3)c2=N)cc1 | 17.9 µM
54 | Cc1ccc(C)c(NC(=S)N(C)CCc2ccccn2)c1 | > 50 µM (inactive)
55 | CC(C)CCN(CCC(C)C)CC(O)Cn1c2ccccc2c(=O)c2ccccc21 (centres undefined) | 6.71 µM
56 | O=C(c1ccc(Br)cc1)c1cc2ccc(O)cc2oc1=O | 19.2 µM
57 | CCC(=O)NCCNc1nc2cc(C)c(C)cc2cc1C#N | 16 µM
58 | COc1ccc(-n2c(N)c(C(=O)NCc3ccco3)c3nc4ccccc4nc32)cc1OC | 45.6 µM
59 | O=C(NNc1c2ccccc2nc2ccccc12)c1ccc(Cl)cc1 | > 50 µM (inactive)
60 | CCC(C)OC(=O)C[N+](C)(C)CCOC1CC2CCC1(C)C2(C)C (centres undefined) | > 50 µM (inactive)
61 | CN1CCN(C(=O)c2cc3nc(-c4ccccc4)cc(C(F)(F)F)n3n2)CC1 | > 50 µM (inactive)
62 | C=CCn1c(N)c(C(=O)OCCC)c2nc3ccccc3nc21 | 26 µM
63 | OCCNc1c2ccccc2nc2c(F)c(F)c(F)c(F)c12 | 20.9 µM
64 | Cc1cccc(/C=N/c2sc3c(c2C#N)CCN(Cc2ccccc2)C3)c1O | > 50 µM (inactive)
65 | COc1ccc(C(=O)Cc2cnn(-c3ccccc3)c2)c(O)c1 | > 50 µM (inactive)
66 | O=C(Cn1c(=O)c2cccn2c2cccnc21)NCCCN1CCN(c2ccc(F)cc2)CC1 | > 50 µM (inactive)
67 | N#CC1=C(N)SC(N)=C(C#N)C1c1cccc(O)c1 | > 50 µM (inactive)
68 | Cn1c(N/N=C/c2cc3ccccc3nc2Cl)nc2ccccc21 | > 120 µM (inactive)
69 | NC(=O)CN(Cc1ccccc1)S(=O)(=O)c1ccc2c(c1)OCCO2 | > 50 µM (inactive)
70 | CC(CC(F)(F)F)N1CCC(n2nccc2NC(=O)CCOc2ccccc2)CC1 (centres undefined) | > 50 µM (inactive)
71 | COc1ccc(-c2csc3ncnc(N4CCN(c5ccc(OC)cc5)CC4)c23)cc1 | > 50 µM (inactive)
72 | CCCn1c(SCC(=O)Nc2ccc(NC(C)=O)cc2)nc2c1c(=O)n(C)c(=O)n2C | > 50 µM (inactive)
73 | CNS(=O)(=O)c1cc(OC)c(OC)cc1CC(=O)OC | > 50 µM (inactive)
74 | Cc1c(CC(=O)N2CCN(C(=O)C3COc4ccccc4O3)CC2)c(=O)oc2cc(O)c(Cl)cc12 (centres undefined) | 4.84 µM
